Experimental data as given in patent US20160311791A1, “NOVEL TRICYCLIC CALCIUM SENSING RECEPTOR ANTOGONISTS FOR THE TREATMENT OF OSTEOPOSOSIS” (MERCK SHARP & DOHME CORP., priority 2013, published 2016).

Each compound was assayed against T1, human CaSR (Homo sapiens, UniProt P41180) (assay: CaSR FLIPR assay (calcilytic activity)). Details: HEK293 cells stably expressing human recombinant CaSR; 1 mM CaCl2 agonist; Tables 1-24; read-out: FLIPR ASSAY IC50.
T1 sequence (P41180 20-1078): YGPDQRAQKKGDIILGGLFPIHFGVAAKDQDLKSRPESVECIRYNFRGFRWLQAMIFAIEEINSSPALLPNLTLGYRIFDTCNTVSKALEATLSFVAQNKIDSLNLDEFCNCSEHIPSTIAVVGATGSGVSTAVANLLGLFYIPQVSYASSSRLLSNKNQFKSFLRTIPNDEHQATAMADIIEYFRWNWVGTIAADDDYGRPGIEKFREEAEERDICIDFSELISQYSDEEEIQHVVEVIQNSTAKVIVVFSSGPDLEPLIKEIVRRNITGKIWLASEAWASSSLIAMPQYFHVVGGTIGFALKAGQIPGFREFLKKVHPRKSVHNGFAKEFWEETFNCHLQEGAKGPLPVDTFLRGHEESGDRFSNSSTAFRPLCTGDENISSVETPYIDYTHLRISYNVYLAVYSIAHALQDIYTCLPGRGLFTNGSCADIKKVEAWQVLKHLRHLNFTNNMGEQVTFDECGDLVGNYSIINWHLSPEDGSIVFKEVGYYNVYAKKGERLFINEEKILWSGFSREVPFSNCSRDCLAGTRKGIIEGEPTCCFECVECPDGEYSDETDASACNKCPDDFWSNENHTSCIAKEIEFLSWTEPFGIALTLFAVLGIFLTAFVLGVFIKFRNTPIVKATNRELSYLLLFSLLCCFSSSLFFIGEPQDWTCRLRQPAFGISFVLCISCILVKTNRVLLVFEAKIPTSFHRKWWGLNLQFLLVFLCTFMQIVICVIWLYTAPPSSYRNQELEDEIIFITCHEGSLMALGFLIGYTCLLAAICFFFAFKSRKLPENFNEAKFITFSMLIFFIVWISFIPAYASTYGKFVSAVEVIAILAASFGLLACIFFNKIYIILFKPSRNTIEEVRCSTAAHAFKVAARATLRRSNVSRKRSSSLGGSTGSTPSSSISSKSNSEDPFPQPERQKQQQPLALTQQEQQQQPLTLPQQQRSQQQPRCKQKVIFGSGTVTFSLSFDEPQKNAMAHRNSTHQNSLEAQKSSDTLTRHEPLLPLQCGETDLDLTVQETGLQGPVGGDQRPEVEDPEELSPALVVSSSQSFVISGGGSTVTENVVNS
Format: cell-based
Parameters: expressed in transfected cells
Experimental: Procedures for CaSR FLIPR Assay
Calcilytic activity of the compound is measured in HEK293 cells stably expressing human recombinant CaSR (HEK-CaSR) using a FLIPR^TETRA device (Molecular Devices, Sunnyvale, Calif.) according to the manufacturer's directions. […] On the day of the assay, one vial of FLIPR Calcium 4 Assay Kit reagent Component A was equilibrated to room temperature. The content of the Component A vial was diluted by adding 10 ml dilution buffer (2×loading dye). The sample was mixed by vortexing (1-2 minutes) until the contents of the vial dissolved. The Component A vial mixture was diluted with 10 ml dilution buffer. Media was aspirated from the cells and 80 μl of loading buffer was added to each well. Plates were incubated for 1 hour at 37° C. and then placed at room temperature for 10 minutes. A two-stage method of generating 10-point serial dilutions was used. Compound was serially diluted in 100% DMSO (10 point, 3-fold dilution of each compound from 2 mM in 100% DMSO). 3 μl of serially diluted compound was transferred into a second assay microplate that contained 97 μl of TETRA dilution buffer (20 mM HEPES pH7.4, 1×HBSS without Ca and Mg, 0.4 mM CaCl2, 0.4 mM MgSO4, 0.5 mM MgCl2) to create the intermediate dilution plate. After reading the base line, the compounds in 0.5% DMSO in dilution buffer were added to their respective wells as 20 μl aliquots at 6×the final drug concentration. The fluorescence signals were then read. Subsequently, 20 μl of 3.6 mM of CaCl2 agonist (1 mM final concentration) was added to each well. For background, 20 μl of TETRA dilution buffer was added instead. The protocol consisted of a pre-addition read of 10 frames (10×1 frame/sec), a post 1st addition read of 100 frames (60×1 frame/sec, 40×1 frame/3 sec), pause 3 min, a post 2nd addition read of 100 frames (60×1 frame/sec, 40×1 frame/3 sec) on a FLIPR^TETRA Plate Reader.

SMILES	IC50
Cc1ccc([C@@H](C)OC[C@H](O)CNC(C)(C)CCOc2ccccc2)c2c1O[C@@H]1[C@@H](C(=O)O)[C@H]21 [Example 8-17]	90 nM
Cc1ccc([C@@H](C)OC[C@H](O)CN2CCCC2(C)Cc2ccccc2)c2c1O[C@@H]1[C@@H](C(=O)O)[C@H]21 (stereo partly drawn) [Example 8-18]	1330 nM
Cc1ccc([C@@H](C)OC[C@H](O)CNC(C)(C)Cc2ccc(F)c(F)c2)c2c1O[C@@H]1[C@@H](C(=O)O)[C@H]21 [Example 8-19]	138 nM
Cc1ccc([C@@H](C)OC[C@H](O)CNC(C)(C)Cc2cc(F)c(F)cc2F)c2c1O[C@@H]1[C@@H](C(=O)O)[C@H]21 [Example 8-21]	99 nM
Cc1ccc([C@@H](C)OC[C@H](O)CNC(C)(C)Cc2c(F)cc(F)cc2F)c2c1O[C@@H]1[C@@H](C(=O)O)[C@H]21 [Example 8-22]	210 nM
CSc1ccc(CC(C)(C)NC[C@@H](O)CO[C@H](C)c2ccc(C)c3c2C2[C@H](O3)[C@H]2C(=O)O)cc1 (stereo partly drawn) [Example 8-23]	40 nM
Cc1ccc([C@@H](C)OC[C@H](O)CNC(C)(C)Cc2ccc3ncccc3c2)c2c1O[C@H]1C2[C@@H]1C(=O)O (stereo partly drawn) [Example 8-25]	460 nM
Cc1ccc([C@@H](C)OC[C@H](O)CNC(C)(C)Cc2ccc3c(c2)CCS3)c2c1O[C@@H]1[C@@H](C(=O)O)[C@H]21 [Example 8-26]	21 nM
Cc1ccc([C@@H](C)OC[C@H](O)CNC(C)(C)Cc2ccc3c(c2)CCS3(=O)=O)c2c1O[C@@H]1[C@@H](C(=O)O)[C@H]21 [Example 8-27]	> 10000 nM
COc1ccc(CC(C)(C)NC[C@@H](O)CO[C@H](C)c2ccc(C)c3c2[C@@H]2[C@H](O3)[C@H]2C(=O)O)c(Cl)c1 [Example 8-28]	22 nM
Cc1ccc([C@@H](C)OC[C@H](O)CNC(C)(C)CSCc2ccccc2)c2c1O[C@@H]1[C@@H](C(=O)O)[C@H]21 [Example 8-29]	500 nM
Cc1ccc([C@@H](C)OC[C@H](O)CNC(C)(C)CCSc2ccccc2)c2c1O[C@@H]1[C@@H](C(=O)O)[C@H]21 [Example 8-30]	50 nM
Cc1ccc([C@@H](C)OC[C@H](O)CNC(C)(C)CCSc2ccc(F)cc2)c2c1O[C@@H]1[C@@H](C(=O)O)[C@H]21 [Example 8-31]	65 nM
Cc1ccc([C@@H](C)OC[C@H](O)CNC(C)(C)CSc2ccc(F)cc2)c2c1O[C@@H]1[C@@H](C(=O)O)[C@H]21 [Example 8-32]	1410 nM
CSc1ccc(CC(C)(C)NC[C@@H](O)CO[C@H](C)c2ccc(C)c3c2[C@@H]2[C@H](O3)[C@H]2C(=O)O)cc1Cl [Example 8-33]	30 nM
CSc1ccc(CC(C)(C)NC[C@@H](O)CO[C@H](C)c2ccc(C)c3c2[C@@H]2[C@H](O3)[C@H]2C(=O)O)cc1C [Example 8-34]	82 nM
Cc1ccc([C@@H](C)OC[C@H](O)CNC(C)(C)Cc2ccc3ccccc3c2)c2c1O[C@H]1[C@H](C(=O)O)[C@@H]21 [Example 9-1]	22 nM
Cc1ccc([C@@H](C)OC[C@H](O)CNC(C)(C)Cc2ccc(Cl)c(F)c2)c2c1O[C@H]1[C@H](C(=O)O)[C@@H]21 [Example 9-2]	78 nM
Cc1ccc([C@@H](C)OC[C@H](O)CNC(C)(C)CC2Cc3ccccc3C2)c2c1O[C@H]1[C@H](C(=O)O)[C@@H]21 [Example 9-3]	46 nM
Cc1ccc(CC(C)(C)NC[C@@H](O)CO[C@H](C)c2ccc(C)c3c2[C@H]2[C@@H](O3)[C@@H]2C(=O)O)cc1F [Example 9-4]	68 nM
COc1ccc(CC(C)(C)NC[C@@H](O)CO[C@H](C)c2ccc(C)c3c2[C@H]2[C@@H](O3)[C@@H]2C(=O)O)cc1F [Example 9-5]	224 nM
Cc1ccc([C@@H](C)OC[C@H](O)CNC(C)(C)Cc2ccc3c(c2)CCC3)c2c1O[C@H]1[C@H](C(=O)O)[C@@H]21 [Example 9-6]	53 nM
Cc1ccc([C@@H](C)OC[C@H](O)CNC2(Cc3ccc4ccccc4c3)CC2)c2c1O[C@H]1[C@H](C(=O)O)[C@@H]21 [Example 9-7]	187 nM
Cc1ccc([C@@H](C)OC[C@H](O)CNC2(Cc3ccc4ccccc4c3)CCC2)c2c1O[C@H]1[C@H](C(=O)O)[C@@H]21 [Example 9-8]	> 10000 nM
